Laboratory results taken from US4450269A, “Mono-5-substituted-3-chloro-4H-1,2,6-thiadiazin-4-one antifungal agents” (FMC Corporation, priority 1980, dated 1984).
Read-outs that look alike come from different tables or passages of the source.

How the values were obtained:
Phytophthora infestans = type: cell-based; settings: PI, 48 hours
Pyricularia oryzae = assay: microbe, parasite or virus in culture; type: cell-based; settings: for Percent Fungus Growth Inhibition: PO, 72 hours; for inhibition at 5 ppm / inhibition at 10 ppm / inhibition at 20 ppm / inhibition at 40 ppm: Pyricularia oryzae, 72 h; for inhibition at 5 ppm: read-out: Percent Fungus Growth Inhibition, PO, 5 ppm, 72 hours; for inhibition at 10 ppm: read-out: Percent Fungus Growth Inhibition, PO, 10 ppm, 72 hours; for inhibition at 20 ppm: read-out: Percent Fungus Growth Inhibition, PO, 20 ppm, 72 hours; for inhibition at 40 ppm: read-out: Percent Fungus Growth Inhibition, PO, 40 ppm, 72 hours

Compound	Spore Germination Rating (Phytophthora infestans; 1.0 ppm)	Spore Germination Rating (Phytophthora infestans; 2.5 ppm)	Spore Germination Rating (Phytophthora infestans; 10 ppm)	Spore Germination Rating (Phytophthora infestans; 40 ppm)	Percent Fungus Growth Inhibition (Pyricularia oryzae; 5 ppm) [%]	Percent Fungus Growth Inhibition (Pyricularia oryzae; 10 ppm) [%]	Percent Fungus Growth Inhibition (Pyricularia oryzae; 20 ppm) [%]	Percent Fungus Growth Inhibition (Pyricularia oryzae; 40 ppm) [%]	inhibition at 5 ppm (Pyricularia oryzae) [%]	inhibition at 10 ppm (Pyricularia oryzae) [%]	inhibition at 20 ppm (Pyricularia oryzae) [%]	inhibition at 40 ppm (Pyricularia oryzae) [%]
3-chloro-5-(bromophenoxy)-4H-1,2,6-thiadiazin-4-one [Compound 33]	0 (0-10)	0 (0-10)	0 (0-10)	0 (0-10)	53	68	100	100	–	–	–	–
O=c1c(Cl)nsnc1Oc1ccccc1 [Compound 2, 3-chloro-5-phenoxy-4H--1,2,6-thiadiazin-4-one]	0 (0-10)	1 (10-40)	1 (10-40)	0 (0-10)	–	–	–	–	22	26	56	100
Cc1ccc(Oc2nsnc(Cl)c2=O)cc1 [Compound 3, 3-chloro-5-(4-methylphenoxy)-4H--1,2,6-thiadiazin-4-one]	3 (60-80)	2 (40-60)	0 (0-10)	0 (0-10)	–	–	–	–	19	41	41	93
CC(C)(C)c1ccc(Oc2nsnc(Cl)c2=O)cc1 [Compound 4, 3-chloro-5-(4-tert-butylphnoxy)-4H--1,2,6-thiadiazin-4-one]	4 (80-100)	3 (60-80)	0 (0-10)	0 (0-10)	–	–	–	–	0	0	0	19
COc1ccc(Oc2nsnc(Cl)c2=O)cc1 [Compound 5, 3-chloro-5-(4-methoxyphenoxy)4H--1,2,6-thiadiazin-4-one]	2 (40-60)	2 (40-60)	2 (40-60)	0 (0-10)	–	–	–	–	4	22	48	63
CCCCOc1ccc(Oc2nsnc(Cl)c2=O)cc1 [Compound 6, 3-chloro-5-(4-n-butoxyphenoxy)-4H--1,2,6-thiadiazin-4-one]	2 (40-60)	0 (0-10)	0 (0-10)	0 (0-10)	–	–	–	–	15	0	19	19
CCOC(=O)c1ccc(Oc2nsnc(Cl)c2=O)cc1 [Compound 7, 3-chloro-5-(4-ethoxycarbonylphenoxy)-4H--1,2,6-thiadiazin-4-one]	0 (0-10)	0 (0-10)	0 (0-10)	0 (0-10)	–	–	–	–	19	65	77	81
CC(=O)Nc1ccc(Oc2nsnc(Cl)c2=O)cc1 [Compound 8, 5-(4-acetylaminophenoxy)-3-chloro-4H--1,2,6-thiadiazin-4-one]	4 (80-100)	4 (80-100)	0 (0-10)	0 (0-10)	–	–	–	–	23	0	48	74
O=c1c(Cl)nsnc1Oc1ccc([N+](=O)[O-])cc1 [Compound 9, 3-chloro-5-(4-nitrophenoxy)-4H--1,2,6-thiadiazin-4-one]	0 (0-10)	0 (0-10)	0 (0-10)	0 (0-10)	–	–	–	–	22	48	70	93
N#Cc1ccc(Oc2nsnc(Cl)c2=O)cc1 [Compound 10, 3-chloro-5-(4-cyanophenoxy)-4H--1,2,6-thiadiazin-4-one]	0 (0-10)	0 (0-10)	0 (0-10)	1 (10-40)	–	–	–	–	19	19	58	77
O=c1c(Cl)nsnc1Oc1ccc(F)cc1 [Compound 11, 3-chloro-5-(4-fluorophenoxy)-4H--1,2,6-thiadiazin-4-one]	4 (80-100)	0 (0-10)	0 (0-10)	0 (0-10)	–	–	–	–	15	38	54	62
O=c1c(Cl)nsnc1Oc1ccc(Cl)cc1 [Compound 12, 3-chloro-5-(4-chlorophenoxy)-4H--1,2,6-thiadiazin-4-one]	1 (10-40)	1 (10-40)	1 (10-40)	0 (0-10)	–	–	–	–	19	30	59	85
O=c1c(Cl)nsnc1Oc1cccc(Cl)c1 [Compound 13, 3-chloro-5-(3-chlorophenoxy)-4H--1,2,6-thiadiazin-4-one]	0 (0-10)	0 (0-10)	0 (0-10)	0 (0-10)	–	–	–	–	44	42	74	100
O=c1c(Cl)nsnc1Oc1ccccc1Cl [Compound 14, 3-chloro-5-(2-chlorophenoxy)-4H--1,2,6-thiadiazin-4-one]	0 (0-10)	0 (0-10)	0 (0-10)	0 (0-10)	–	–	–	–	23	26	55	100
O=c1c(Cl)nsnc1Oc1ccc(Br)cc1 [Compound 15, 3-chloro-5-(4-bromophenoxy)-4H--1,2,6-thiadiazin-4-one]	0 (0-10)	1 (10-40)	0 (0-10)	0 (0-10)	–	–	–	–	12	19	50	58
O=c1c(Cl)nsnc1Oc1ccc(Cl)c(Cl)c1 [Compound 16, 3-chloro-5-(3,4-dichlorophenoxy)-4H--1,2,6-thiadiazin-4-one]	1 (10-40)	0 (0-10)	0 (0-10)	0 (0-10)	–	–	–	–	41	48	48	41
O=c1c(Cl)nsnc1Oc1ccc(Cl)cc1Cl [Compound 17, 3-chloro-5-(2,4-dichlorophenoxy)-4H--1,2,6-thiadiazin-4-one]	3 (60-80)	0 (0-10)	0 (0-10)	0 (0-10)	–	–	–	–	29	48	29	71
O=c1c(Cl)nsnc1Oc1c(Cl)cccc1Cl [Compound 18, 3-chloro-5-(2,6-dichlorophenoxy)-4H--1,2,6-thiadiazin-4-one]	3 (60-80)	0 (0-10)	0 (0-10)	0 (0-10)	–	–	–	–	26	32	48	48
O=c1c(Cl)nsnc1Oc1cccc(Cl)c1Cl [Compound 19, 3-chloro-5-(2,3-dichlorophenoxy)-4H--1,2,6-thiadiazin-4-one]	3 (60-80)	0 (0-10)	0 (0-10)	0 (0-10)	–	–	–	–	39	48	68	87
O=c1c(Cl)nsnc1Oc1cc(Cl)cc(Cl)c1 [Compound 20, 3-chloro-5-(3,5-dichlorophenoxy)-4H--1,2,6-thiadiazin-4-one]	0 (0-10)	0 (0-10)	0 (0-10)	0 (0-10)	–	–	–	–	48	74	68	74
Cc1cccc(Oc2nsnc(Cl)c2=O)c1 [Compound 21, 3-chloro-5-(3-methylphenoxy)-4H--1,2,6-thiadiazin-4-one]	4 (80-100)	1 (10-40)	0 (0-10)	0 (0-10)	–	–	–	–	33	33	50	58
Cc1ccccc1Oc1nsnc(Cl)c1=O [Compound 22, 3-chloro-5-(2-methylphenoxy)-4H--1,2,6-thiadiazin-4-one]	0 (0-10)	0 (0-10)	0 (0-10)	0 (0-10)	–	–	–	–	21	33	54	63
Cc1ccc(Oc2nsnc(Cl)c2=O)c(C)c1 [Compound 23, 3-chloro-5-(2,4-dimethylphenoxy)-4H--1,2,6-thiadiazin-4-one]	4 (80-100)	2 (40-60)	2 (40-60)	0 (0-10)	–	–	–	–	21	42	46	58
Cc1cccc(C)c1Oc1nsnc(Cl)c1=O [Compound 24, 3-chloro-5-(2,6-dimethylphenoxy)-4H--1,2,6-thiadiazin-4-one]	4 (80-100)	2 (40-60)	1 (10-40)	0 (0-10)	–	–	–	–	21	42	63	100
Cc1cc(C)cc(Oc2nsnc(Cl)c2=O)c1 [Compound 25, 3-chloro-5-(3,5-dimethylphenoxy)-4H--1,2,6-thiadiazin-4-one]	4 (80-100)	1 (10-40)	0 (0-10)	0 (0-10)	–	–	–	–	33	58	54	63
Nc1ccc(Oc2nsnc(Cl)c2=O)cc1 [Compound 26, 5-(4-aminophenoxy)-3-chloro-4H--1,2,6-thiadiazin-4-one]	4 (80-100)	4 (80-100)	4 (80-100)	2 (40-60)	0	48	90	–	–	–	–	100
